Data as given in patent US9849130B2 (KamTek, Inc., priority 2014, dated 2017).
Converted amounts (≈) assume the structure as drawn. Like-named read-outs stand apart in the source and are kept apart here.

Experiments:
[1] = test system: Lachnospiraceae and related bacterial strains; experiment: MIC against Lachnospiraceae and related bacterial strains; type: cell-based, Lachnospiraceae spp.; conditions: for MIC: broth microdilution, brucella broth, read-out: MIC
CD strains = experiment: In vitro activity of CFM + additional antimicrobial agent against CD (MIC alone/combination, FIC, ΣFIC); type: cell-based, Clostridium difficile; conditions: CFM + MET; for MIC: Clostridioides difficile, read-out: MIC alone
C. perfringens MH310 = experiment: microbe, parasite or virus in culture; type: cell-based; conditions: Clostridium perfringens, MH310, C. perfringens MH310
Fusobacterium = experiment: MIC by microdilution in Brucella broth against Fusobacterium; type: cell-based, Fusobacterium spp.; conditions: read-out: MIC
Enterococcus faecalis = experiment: MIC by microdilution in Mueller-Hinton broth against Enterococcus faecalis strains; type: cell-based; conditions: Enterococcus faecalis
Escherichia coli strains = experiment: MIC by microdilution in Mueller-Hinton broth against Escherichia coli strains; type: cell-based; conditions: Escherichia coli, Mueller-Hinton broth, read-out: MIC
Bacteroides Strains = experiment: MIC by microdilution in Brucella broth against Bacteroides strains; type: cell-based, Bacteroides spp.
[2] = test system: Staphylococcus aureus strains; experiment: MIC by microdilution in Mueller-Hinton broth against Staphylococcus aureus strains; type: cell-based; conditions: Staphylococcus aureus
Lactobacillus strains = experiment: MIC against Lactobacillus strains; type: cell-based, Lactobacillus spp.; conditions: for MIC: broth microdilution, BHI with 0.02% Tween 80, pH 6.0, read-out: MIC
C. difficile = experiment: Minimum bactericidal concentration (MBC) against C. difficile; type: cell-based, Clostridium difficile; conditions: Clostridioides difficile, CD strain VPI 10463; BHI; Table 19 formulations; read-out: MBC
Enterococci faecium = experiment: MIC by microdilution in Mueller-Hinton broth against Enterococci faecium strains; type: cell-based, Enterococcus faecium; conditions: Enterococcus faecium, Mueller-Hinton broth, read-out: MIC
C. difficile VPI10463 = conditions: Clostridioides difficile, −fecal extract, C. difficile VPI10463
[3] = Test 14, CD strain BAA1805 (BI/NAP1/027)

SMILES: Cc1ncc([N+](=O)[O-])n1CCO [MET, metronidazole]
- MIC ([1]; Clostridiales bacterium, Clostridiales bacterium HM-84): 0.25 µg/mL (≈ 1.46 µM)
- MIC ([1]; Clostridiales bacterium, Clostridiales bacterium HM-182): ≤ 0.031 µg/mL
- MIC ([1]; Eubacterium sp. HM-178): 1 µg/mL (≈ 5.84 µM)
- MIC ([1]; Lachnospiraceae sp. HM-7): 0.25 µg/mL (≈ 1.46 µM)
- MIC ([1]; Lachnospiraceae sp. HM-150): 0.25 µg/mL (≈ 1.46 µM)
- MIC ([1]; Lachnospiraceae sp. HM-153): 0.062 µg/mL (≈ 0.362 µM)
- MIC ([1]; Lachnospiraceae sp. HM-157): 0.25 µg/mL (≈ 1.46 µM)
- MIC ([1]; Lachnospiraceae sp. HM-480): 0.5 µg/mL (≈ 2.92 µM)
- MIC ([1]; Lachnospiraceae sp. HM-558): 0.5 µg/mL (≈ 2.92 µM)
- MIC ([1]; Lachnospiraceae sp. HM-768): 0.5 µg/mL (≈ 2.92 µM)
- MIC ([1]; Lachnospiraceae sp. HM-868): 16 µg/mL (≈ 93.5 µM)
- MIC ([1]; Peptostreptococcaceae sp. HM-766): 0.5 µg/mL (≈ 2.92 µM)
- susceptibility of Lachnospiraceae and related organisms (in words) ([1]; most of the members of this family): susceptible
- MIC (CD strains; BAA1805, Test 14, CD strain BAA1805 (BI/NAP1/027)): 16 µg/mL
- MIC (CD strains; BAA1805, Test 15, CD strain BAA1805 (BI/NAP1/027)): 32 µg/mL
- MIC (CD strains; BAA1805, Test 17, CD strain BAA1805 (BI/NAP1/027)): 32 µg/mL
- MIC (CD strains; Test 8, CD strain NR32885): 2 µg/mL
- MIC (CD strains; Test 10, CD strain NR32885): 1 µg/mL
- MIC (CD strains; Test 12, CD strain NR32885): 1 µg/mL
- MIC (CD strains; Test 19, CD strain NR32888): 2 µg/mL
- MIC (CD strains; Test 21, CD strain NR32888): 2 µg/mL
- FIC (CD strains; Test 3, CD strain VPI 10463): 0.5
- MIC combination (CD strains; Test 3, CD strain VPI 10463): 0.062 µg/mL
- FIC (CD strains; Test 4, CD strain VPI 10463): 0.5
- MIC combination (CD strains; Test 4, CD strain VPI 10463): 0.062 µg/mL
- MIC combination (CD strains; Test 8, CD strain NR32885): 0.25 µg/mL
- FIC (CD strains; Test 10, CD strain NR32885): 0.25
- MIC combination (CD strains; Test 10, CD strain NR32885): 0.25 µg/mL
- FIC (CD strains; Test 12, CD strain NR32885): 0.25
- MIC combination (CD strains; Test 12, CD strain NR32885): 0.25 µg/mL
- FIC (CD strains; [3]): 0.015
- MIC combination (CD strains; [3]): 0.25 µg/mL
- MIC combination (CD strains; Test 15, CD strain BAA1805 (BI/NAP1/027)): 4 µg/mL
- MIC combination (CD strains; Test 17, CD strain BAA1805 (BI/NAP1/027)): 4 µg/mL
- FIC (CD strains; Test 19, CD strain NR32888): 0.062
- FIC (CD strains; Test 21, CD strain NR32888): 0.25
- MIC combination (CD strains; Test 21, CD strain NR32888): 0.5 µg/mL
- MIC (C. perfringens MH310; BB): 2 µg/mL (≈ 11.7 µM)
- MIC (C. perfringens MH310; BHI): 1 µg/mL (≈ 5.84 µM)
- MIC (Fusobacterium; F. nucleatum HM-75, Brucella broth): 0.062 µg/mL (≈ 0.362 µM)
- MIC (Fusobacterium; F. nucleatum HM-993, Brucella broth): ≤ 0.031 µg/mL
- MIC (Fusobacterium; F. nucleatum HM-996, Brucella broth): 0.5 µg/mL (≈ 2.92 µM)
- MIC (Fusobacterium; F. nucleatum HM-997, Brucella broth): 0.25 µg/mL (≈ 1.46 µM)
- MIC (Fusobacterium; Fusobacterium, Fusobacterium sp. HM 57, Brucella broth): 0.5 µg/mL (≈ 2.92 µM)
- MIC (Fusobacterium; Fusobacterium, Fusobacterium spp. strains of Table 12 (all strains)): 0.031 to 0.5 µg/mL (≈ 0.181 to 2.92 µM)
- MIC (Enterococcus faecalis; E. faecalis NR 31884, read-out: MIC): > 32 µg/mL
- MIC (Enterococcus faecalis; E. faecalis NR 31885, read-out: MIC): > 32 µg/mL
- MIC (Enterococcus faecalis; E. faecalis NR 31886, read-out: MIC): > 32 µg/mL
- MIC (Enterococcus faecalis; E. faecalis NR 31887, read-out: MIC): > 32 µg/mL
- MIC (Enterococcus faecalis; E. faecalis NR 31888, read-out: MIC): > 32 µg/mL
- MIC (Escherichia coli strains; Escherichia coli strain NR 6): > 32 µg/mL
- MIC (Escherichia coli strains; Escherichia coli strain NR 8): > 32 µg/mL
- MIC (Escherichia coli strains; Escherichia coli strain NR 96): > 32 µg/mL
- MIC (Escherichia coli strains; Escherichia coli strain NR 104): > 32 µg/mL
- MIC (Escherichia coli strains; Escherichia coli strain NR 17626): > 32 µg/mL
- MIC (Escherichia coli strains; Escherichia coli strain NR 17627): > 32 µg/mL
- MIC (Escherichia coli strains; Escherichia coli strain NR 17633): > 32 µg/mL
- MIC (Escherichia coli strains; Escherichia coli strain NR 17647): > 32 µg/mL
- MIC (Escherichia coli strains; Escherichia coli strain NR 17650): > 32 µg/mL
- MIC (Escherichia coli strains; Escherichia coli strain NR 17661): > 32 µg/mL
- MIC (Bacteroides Strains; B. caccae HM728, read-out: MIC): 0.25 µg/mL (≈ 1.46 µM)
- MIC (Bacteroides Strains; B. eggerthii HM210, read-out: MIC): 0.5 µg/mL (≈ 2.92 µM)
- MIC (Bacteroides Strains; B. fragilis HM709, read-out: MIC): 1 µg/mL (≈ 5.84 µM)
- MIC (Bacteroides Strains; B. fragilis HM710, read-out: MIC): 0.5 µg/mL (≈ 2.92 µM)
- MIC (Bacteroides Strains; B. fragilis HM714, read-out: MIC): 1 µg/mL (≈ 5.84 µM)
- MIC (Bacteroides Strains; B. ovatus HM222, read-out: MIC): 0.5 µg/mL (≈ 2.92 µM)
- MIC (Bacteroides Strains; B. stercoris HM1036, read-out: MIC): 0.25 µg/mL (≈ 1.46 µM)
- MIC (Bacteroides Strains; Bacteroides, B. spp. HM18): 4 µg/mL (≈ 23.4 µM)
- MIC (Bacteroides Strains; Bacteroides, B. spp. HM19): 1 µg/mL (≈ 5.84 µM)
- MIC (Bacteroides Strains; Bacteroides, B. spp. HM22): 0.5 µg/mL (≈ 2.92 µM)
- MIC (Bacteroides Strains; Bacteroides, B. spp. HM23, read-out: MIC): 0.25 µg/mL (≈ 1.46 µM)
- MIC (Bacteroides Strains; Bacteroides, B. spp. HM27): 0.5 µg/mL (≈ 2.92 µM)
- MIC (Bacteroides Strains; Bacteroides, B. spp. HM28): 2 µg/mL (≈ 11.7 µM)
- MIC (Bacteroides Strains; Bacteroides, B. spp. HM58): 2 µg/mL (≈ 11.7 µM)
- MIC ([2]; Staphylococcus aureus strain NR 10129, read-out: MIC): > 32 µg/mL
- MIC ([2]; Staphylococcus aureus strain NR 10186, read-out: MIC): > 32 µg/mL
- MIC ([2]; Staphylococcus aureus strain NR 10187, read-out: MIC): > 32 µg/mL
- MIC ([2]; Staphylococcus aureus strain NR 10188, read-out: MIC): > 32 µg/mL
- MIC ([2]; Staphylococcus aureus strain NR 10189, read-out: MIC): > 32 µg/mL
- MIC ([2]; Staphylococcus aureus strain NR 10191, read-out: MIC): > 32 µg/mL
- MIC ([2]; Staphylococcus aureus strain NR 10192, read-out: MIC): > 32 µg/mL
- MIC ([2]; Staphylococcus aureus strain NR 10193, read-out: MIC): > 32 µg/mL
- MIC ([2]; Staphylococcus aureus strain NR 10194, read-out: MIC): > 32 µg/mL
- MIC ([2]; Staphylococcus aureus strain NR 10198, read-out: MIC): > 32 µg/mL
- MIC (Lactobacillus strains; Lactobacillus, pH 6, Lactobacillus jhonsonii HM-643): > 32 µg/mL
- MIC (Lactobacillus strains; Lactobacillus, pH 6, Lactobacillus sp. HM-228): > 32 µg/mL
- MIC (Lactobacillus strains; Lactobacillus, pH 6, Lactobacillus sp. HM-478): > 32 µg/mL
- MIC (Lactobacillus strains; pH 6, Lactobacillus crispatus HM-637): > 32 µg/mL
- MIC (Lactobacillus strains; pH 6, Lactobacillus gasseri HM-104): > 32 µg/mL
- MIC (Lactobacillus strains; pH 6, Lactobacillus iners HM-126): > 32 µg/mL
- MIC (Lactobacillus strains; pH 6, Lactobacillus jensenii HM-105): > 32 µg/mL
- MIC (Lactobacillus strains; pH 6, Lactobacillus reuteri HM-102): > 32 µg/mL
- MIC (Lactobacillus strains; pH 6, Lactobacillus rhamnosus HM-106): > 32 µg/mL
- MIC (Lactobacillus strains; pH 6, Lactobacillus vaginalis HM-405): > 32 µg/mL
- in vitro activity against Lactobacillus spp. (in words) (Lactobacillus strains; ten strains tested): essentially inactive
- MBC (C. difficile): 0.25 µg/mL (≈ 1.46 µM)
- MIC (Enterococci faecium; E. faecium NR 31903): > 32 µg/mL
- MIC (Enterococci faecium; E. faecium NR 31909): > 32 µg/mL
- MIC (Enterococci faecium; E. faecium NR 31912): > 32 µg/mL
- MIC (Enterococci faecium; E. faecium NR 31915): > 32 µg/mL
- MIC (Enterococci faecium; E. faecium NR 31916): > 32 µg/mL
- MIC (C. difficile VPI10463; VPI10463, Expt. 1): 0.062 µg/mL (≈ 0.362 µM)
- MIC (C. difficile VPI10463; VPI10463, Expt. 2): 0.062 µg/mL (≈ 0.362 µM)
